The structures appear in SMILES notation. Where only a bound is given, the exact number is not on record here.

For `O=C(O)[C@H](CSc1ccccc1[N+](=O)[O-])N1C(=O)c2ccccc2C1=O`, the melting point (commonly the temperature of the solid-liquid transition) lay within 220 to 222 °C.
Next, `COC(=O)c1ccc(C(=O)C2CCC3=C(N=C(C(C)C)C(C(C)C)N3)C2=O)cc1` (stereo not drawn): 82 to 84 °C; `CC(C)(C)OC(=O)N1C2CCC1C(=O)C2` (stereo not drawn): 60 to 62 °C.
Next, `CCOc1cc2c(=O)cc(C(=O)O)n(CC)c2ccc1=O`: 227 to 228 °C.
`CC(C)CCN1N=C(c2ccc(F)cc2)c2cc(Cl)ccc2CS1(=O)=O` returned a melting point of 123 to 124 °C.
In turn, `CCCC1CCC(O)(c2ccc(CCCCc3ccc(C4(O)CCC(CCC)CC4)cc3)cc2)CC1` (stereo not drawn) registered a melting point of 136 °C.
Next, `Cn1c(-c2ccc(C(=O)O)cc2)cc2cc3c(cc21)C(C)(C)CCC3(C)C`: 288 to 289 °C; `CS(=O)(=O)OCCNc1ccc([N+](=O)[O-])cc1Cl`: 114 to 115 °C; `Oc1c(Sc2ccccc2)sc2ccccc12`: 71 to 73 °C.
`CCCCCCCC/C=C\CCCCCCCCOc1ccc(C(=O)O)o1` showed a melting point of 93 to 96 °C.
In turn, `Cc1cc(OCc2coc(/C=C/c3ccc(S(=O)C(F)(F)F)cc3)n2)ccc1CCCCn1ccnn1` (stereo not drawn) yielded a melting point of 113 to 114 °C.
For the compound `C=Cc1cnc(-c2ccccn2)nc1`, the melting point was 103 °C.
Next, `CC(C)=NOc1cc(Cl)ccc1C#N`: 83 to 84 °C; `Oc1cccc2cc(-c3ccc(OCCN4CCCC4)cc3)sc12`: 180 to 183 °C; `COC(=O)C=Cc1cc(C)n(CCNC(C)=O)c1C`: 144 to 145 °C.
Then `COCCN1C(=O)C(C)(C)C(=O)Nc2ccc(C#N)cc21`, with 247 to 248 °C.
Regarding `O=C1COc2ccc(Br)cc2C(=O)C1`, the melting point is 110 to 112 °C.
Next, `Cc1ccc2c(c1)NC(=O)c1cccc3c1N2CC3`: 238 to 240 °C.
`Fc1ccccc1C1CCC(=S)Nc2ccc(Cl)cc21` (stereo not drawn) had a melting point of 190 °C.
Then `C#Cc1ccc(C(=O)c2ccc3n2CCC3C(=O)OC)cc1` (stereo not drawn), with 113 to 114 °C; and `COc1ccc(-c2nc(NS(=O)(=O)c3ccc(C(C)(C)C)cc3)c(Oc3ccccc3OC)c(OC[C@@H](O)CO)n2)cc1`, with 141 to 142 °C.
`CC(C)CNCc1ccc(S(=O)(=O)c2ccc(S(N)(=O)=O)s2)cc1` came in with a melting point of 198 to 200 °C.
Next, `N#CC(C#N)CC(CC(F)(F)C(F)(F)C(F)(F)C(F)F)SC(F)(F)F` (stereo not drawn): 72 to 74 °C; `CCc1ccc2c(c1)NC(=S)C2=O`: 213 to 214 °C.
Then `O=C(N[C@@H]1CCc2cccc(N3CCNCC3)c2C1)c1ccc(N2CCOCC2)cc1`, with 202 to 203 °C.
Then `O=C1NCCN1C1CCC(NCC(O)COc2ccc(OCC3CC3)cc2)CC1` (stereo not drawn), with 163 to 165 °C; and `Cc1c(Nc2c(C#N)cnc3sc(CCC(=O)N4CCCC4)cc23)ccc2[nH]ccc12`, with 175 °C; and `Nc1c(OCC(F)(F)F)cc(O)c2c1C(=O)c1ccccc1C2=O`, with 266 to 268 °C.
Consider `CCOC=Nc1c(S(=O)C(F)(F)F)c(C#N)nn1-c1c(Cl)cc(C(F)(F)F)cc1Cl` (stereo not drawn), for which the melting point is 63 °C.
Then `O=Cc1cc(Cl)ccc1Oc1ccccc1[N+](=O)[O-]`, with 103 to 105 °C; and `O=C(O)CN1CC(=O)NC1=NN=Cc1ccccc1`, with 218 to 222 °C; and `O=C=Nc1ccc(NCc2ccc(F)c(Cl)c2)c(C(F)(F)F)c1`, with 144 to 146 °C.
Next, `O=c1c2c(n(-c3ccccc3)c3c1CCc1cc(O)ccc1-3)NCCC2`: more than 330 °C; `COc1ccc(-n2c(N)cc(=O)nc2SC)cc1`: 182 to 186 °C.
In turn, `COc1ccc(N2CCN(c3c(C)c(C)c4c(c3C)CC(C)O4)CC2)cc1C` (stereo not drawn) registered a melting point of 141 to 142 °C.
Then `COc1ccc(-c2cc(=O)n(C3CCCC3)nc2-c2ccc(OC)cc2)cc1`, with 141 to 142 °C; and `Nc1cc2[nH]c(=O)c(=O)[nH]c2cc1[N+](=O)[O-]`, with more than 330 °C.
With `COC(=O)C1CCC(C(=O)Nc2sc3c(c2C(=O)NCc2ccc4c(c2)OCO4)CCCC3)CC1` (stereo not drawn), the melting point was 173 °C.
Take `CC(C)(C)c1cc(CCc2ccccc2NC(=O)NCCCN2CCOCC2)cc(C(C)(C)C)c1O`: the melting point lay within 138 to 139 °C.
With `CCCC(=O)SC1CCN(C(C(=O)C2CC2)c2ccccc2F)CC1` (stereo not drawn), the melting point was 97 to 98 °C.
Then `CC(=O)N1CCC(NC(=O)N(CCCN2CCC(Cc3ccccc3)CC2)c2ccccc2)CC1`, with 132 to 135 °C.
`COC(=O)c1ccc(CNC(=O)c2c(N)cc(Cl)cc2Cl)cc1` yielded a melting point of 132 to 137 °C.
Next, `CCCC[C@H](NC(=O)[C@H](CC(C)C)NC(=O)c1cc(F)c(F)c(F)c1F)C(=O)CSCc1ccco1`: 107 to 108 °C.
Regarding `COC(=O)C=C1NCC(CO)OC1=O` (stereo not drawn), the melting point was in the range of 112 to 114 °C.
Turning to `O=C(O)Cc1ccc(C2CCCCC2)c2ccccc12`, the melting point is 161 to 163 °C.
With `NS(=O)(=O)C12CC3CC(CC(C3)C1)C2`, the melting point fell in the range of 191 to 193 °C.
Then `CCN(C(=O)C(C)Cl)c1cn(-c2cccnc2)nc1Cl` (stereo not drawn), with 94 to 105 °C; and `C=CCOc1ccc2cc(C(=O)OCC)[nH]c2c1`, with 89 to 91 °C; and `OCc1ccc(-c2cn([C@H]3CN4CCC3CC4)nn2)cc1`, with 200 °C.
Then `Cc1ncc(NC(=O)OCc2ccccc2)c(=O)n1CC(=O)NC(Cc1ccccc1)C(=O)C(F)(F)F` (stereo not drawn), with 115 to 118 °C; and `O=C1N=NC(=O)c2c1[nH]c1cc(I)ccc21`, with more than 250 °C; and `CCCCCCNc1nc(N)ccc1[N+](=O)[O-]`, with 69 to 73 °C.
`CS(=O)(=O)NC1CCN(Cc2ccccc2)CC1` showed a melting point of 135 to 136 °C.
Next, `N#CC1OC(=O)c2c(F)cccc21` (stereo not drawn): 117 to 120 °C.
Compound `C=CCNc1nc(NC/C=C/c2ccccc2)c2scc(C)c2n1` displayed a melting point of 82 to 84 °C.
Then `CCn1nc2c(N)nc3c(c2c1CC(C)(C)O)CCCC3`, with 202 to 204 °C; and `CCCCOC1=C(c2ccccc2)C(CCC(=O)O)OC1=O` (stereo not drawn), with 94 to 96 °C.
Compound `Cc1c(NC(=O)c2ccc(-c3ccc(Cl)cc3)nc2)ccc2cc(CN3CCCC3)cnc12` displayed a melting point of 234 to 236 °C.
Next, `CCCc1c(OCCCCCC(=O)c2cc(O)c(O)c(C(C)C)c2)ccc(C(=O)O)c1O`: 169 to 171 °C; `CC(=O)Nc1cccc2c1C(=O)CCCC2`: 155 to 162 °C; `O=c1c(CCCc2nccs2)cc2cccnc2n1-c1cccc([N+](=O)[O-])c1`: 198 to 199 °C.
With `Cn1cnnc1C(c1ccc(Cl)cc1)c1ccc2c(c1)c(-c1cccc(Cl)c1)nc1nnnn12` (stereo not drawn), the melting point is 217 °C.
Compound `COC(=O)CCCCN(CCc1c[nH]c2ccccc12)CC(C)C` had a melting point of 103 to 104 °C.
As for `Cc1coc(-c2cccnc2)n1`, the melting point was 40 °C.
With `CCN(CC)C(=O)c1c2nc3c(C(=O)N(CC)CC)c(N)c(O)c(C)c3oc-2c(C)c(=O)c1N`, the melting point lay in the range of 262 to 265 °C.
Next, `Oc1ccc2nc(-c3ccc(Cl)cc3)oc2c1`: 273 to 274 °C.
Then `O=c1c(Br)c(OCc2ccc(Cl)cc2)cnn1-c1ccc(Cl)cc1`, with 168 to 175 °C; and `CCc1cnc2ccnn2c1O`, with 247 to 248 °C; and `CC(CCCC(O)(C(F)(F)F)C(F)(F)F)C1CCC2C3CC=C4CC(O)CC(O)C4(C)C3CCC12C` (stereo not drawn), with 201 to 202 °C.
Then `COc1ccc(-c2cc(=O)c3cccnc3o2)cc1`, with 269 to 270 °C.
Compound `CC(C)(C)c1cc2c(c(C(C)(C)C)c1)OC(=O)C2c1ccccc1` (stereo not drawn) showed a melting point of 116 to 119 °C.
Next, `CC(C)(CNc1nc(Cl)ncc1Cl)NS(C)(=O)=O`: 143 to 145 °C; `O=c1c(-c2ccc(Cl)cc2)coc2cc(O)c(O)cc12`: 299 °C; `O=C1c2ccccc2-c2[nH]nc(-c3ccc(Cl)cc3)c21`: more than 330 °C.
Next, `C[Si](C)(C)C#Cc1ccc(C=O)cc1`: 66 to 67 °C.
The compound `COC(=O)CCCNC(=O)C(CSC(C)=O)Cc1ccccc1` (stereo not drawn) displayed a melting point of 81 to 82 °C.
With `COc1ccc(OCCC#N)cc1`, the melting point is 58 °C.
Next, `N#Cc1ccc(OCCCCCCOc2ccc(-c3cc4cc(C#N)ccc4o3)cc2)cc1`: 148 to 151 °C; `CCOc1c([C@@H]2C[C@H]2C=O)cc(C(C)(C)C)cc1C(C)(C)C` (racemic): 123 to 126 °C; `CCCC(Cc1ccc(OCCN2CCCCCC2)cc1)(C(=O)NO)S(=O)(=O)c1ccc(OC)cc1` (stereo not drawn): 85 °C.
Next, `COc1cc(OC)c2c(=O)[nH]c(-c3ccc(OCCO)c(-c4ccccc4)n3)nc2c1`: 240 to 242 °C; `O=C(O)Cc1c(C(=O)c2ccc(Cl)cc2)[nH]c2ccc(F)cc12`: 233 to 238 °C.
On to `O=Cc1ccc2c(c1)C(=O)OC2`, for which the melting point came to 134 °C.
For the compound `O=C(CCl)N1CC(c2ccc(Cl)cc2)Sc2ccccc21` (stereo not drawn), the melting point was 94 to 95 °C.
Consider `CN(C)c1ccc2c(c1)C(=O)CC(c1ccccc1OCc1ccccc1)=N2`, for which the melting point was 210 to 212 °C.
Next, `COc1cc2c(c(OC)c1/C=C/c1ccc(CO)cc1)C(C)(C)CCC2(C)C`: 102 to 104 °C; `Cc1c(O)noc1C(=O)O`: 257 to 259 °C; `Cc1c(NC(=O)c2ccc(C(C)(C)C)cc2)cccc1-c1cn(C)c(=O)c(Nc2ccc(C(C(=O)O)N(C)C(C)C)cc2)n1` (stereo not drawn): 197 to 198 °C.
For the compound `Cc1c2n(c3ccccc13)CCC2O` (stereo not drawn), the melting point fell in the range of 118 to 120 °C.
For `CC(C)CCOC(=O)c1ccc2c(=O)c3ccccc3ccc2c1`, the melting point was in the range of 26 to 30 °C.
Next, `Nc1sc2cccnc2c1N`: 204 to 209 °C; `CC(=O)Nc1c(C)c(C)c2c(c1N(C)C)CC(C)(C)O2`: 186 °C; `O=C1NC(=O)C(=Cc2ccc([N+](=O)[O-])cc2)S1`: 272 to 273 °C.

These data come from a melting point compilation (Tetko et al.; mined from patent text by program, amines drawn as free bases though some values may be those of a salt).
